Conditions: Hot wire method

C=C(F)C(F)(F)F [2,3,3,3-tetrafluoro-1-propene]
Conditions	thermal conductivity [W/m/K]
303.53 K, 5728 kPa, Liquid	0.06591
303.55 K, 638 kPa, Gas	0.01428
303.58 K, 863 kPa, Liquid	0.06214
303.62 K, 95 kPa, Gas	0.01418
303.69 K, 16013 kPa, Liquid	0.0724
303.7 K, 10745 kPa, Liquid	0.06899
303.7 K, 20552 kPa, Liquid	0.07462
303.71 K, 509 kPa, Gas	0.0142
303.73 K, 5727 kPa, Liquid	0.06571
303.76 K, 199 kPa, Gas	0.01415
303.8 K, 863 kPa, Liquid	0.06166
303.93 K, 349 kPa, Gas	0.01413
304.07 K, 95 kPa, Gas	0.01428
304.07 K, 16014 kPa, Liquid	0.07249
304.07 K, 20551 kPa, Liquid	0.07457
304.1 K, 10744 kPa, Liquid	0.06936
304.15 K, 5727 kPa, Liquid	0.06587
304.2 K, 199 kPa, Gas	0.0142
304.24 K, 861 kPa, Liquid	0.06192
304.28 K, 20546 kPa, Liquid	0.07468
304.3 K, 16011 kPa, Liquid	0.07229
304.33 K, 10741 kPa, Liquid	0.069
304.39 K, 5724 kPa, Liquid	0.06553
304.5 K, 861 kPa, Liquid	0.06141
304.55 K, 95 kPa, Gas	0.01429
311.19 K, 200 kPa, Gas	0.01522
311.21 K, 97 kPa, Gas	0.01495
311.39 K, 298 kPa, Gas	0.01522
311.41 K, 200 kPa, Gas	0.01508
311.44 K, 97 kPa, Gas	0.01475
311.61 K, 298 kPa, Gas	0.01516
311.64 K, 200 kPa, Gas	0.01494
311.67 K, 98 kPa, Gas	0.01469
311.84 K, 298 kPa, Gas	0.01507
311.87 K, 877 kPa, Gas	0.01518
311.89 K, 200 kPa, Gas	0.01484
311.92 K, 97 kPa, Gas	0.01463
311.99 K, 676 kPa, Gas	0.01501
312.01 K, 610 kPa, Gas	0.01499
312.09 K, 298 kPa, Gas	0.01504
312.14 K, 200 kPa, Gas	0.01477
312.15 K, 876 kPa, Gas	0.01537
312.16 K, 409 kPa, Gas	0.0149
312.18 K, 97 kPa, Gas	0.01458
312.25 K, 298 kPa, Gas	0.01491
312.3 K, 675 kPa, Gas	0.01513
312.31 K, 610 kPa, Gas	0.01511
312.36 K, 200 kPa, Gas	0.01491
312.46 K, 875 kPa, Gas	0.01532
312.49 K, 408 kPa, Gas	0.01491
312.57 K, 97 kPa, Gas	0.01511
312.58 K, 298 kPa, Gas	0.01491
312.62 K, 673 kPa, Gas	0.01513
312.66 K, 608 kPa, Gas	0.01506
312.72 K, 200 kPa, Gas	0.01494
312.8 K, 873 kPa, Gas	0.01537
312.85 K, 408 kPa, Gas	0.01492
312.96 K, 298 kPa, Gas	0.01498
312.97 K, 97 kPa, Gas	0.01513
312.97 K, 673 kPa, Gas	0.01511
313.01 K, 607 kPa, Gas	0.01512
313.11 K, 200 kPa, Gas	0.01497
313.15 K, 872 kPa, Gas	0.01537
313.23 K, 408 kPa, Gas	0.01499
313.34 K, 672 kPa, Gas	0.01515
313.36 K, 298 kPa, Gas	0.01497
313.38 K, 608 kPa, Gas	0.01508
313.39 K, 98 kPa, Gas	0.01515
313.53 K, 200 kPa, Gas	0.015
313.62 K, 409 kPa, Gas	0.01501
313.78 K, 298 kPa, Gas	0.01501
313.83 K, 97 kPa, Gas	0.01516
313.96 K, 201 kPa, Gas	0.01503
314.3 K, 97 kPa, Gas	0.01518
321.31 K, 103 kPa, Gas	0.01573
321.31 K, 200 kPa, Gas	0.01591
321.31 K, 302 kPa, Gas	0.01608
321.46 K, 1449 kPa, Liquid	0.05663
321.54 K, 103 kPa, Gas	0.01562
321.54 K, 200 kPa, Gas	0.01577
321.54 K, 302 kPa, Gas	0.01588
321.56 K, 1449 kPa, Liquid	0.05669
321.75 K, 1115 kPa, Gas	0.0164
321.76 K, 302 kPa, Gas	0.01587
321.78 K, 103 kPa, Gas	0.01553
321.79 K, 200 kPa, Gas	0.01566
321.82 K, 1447 kPa, Liquid	0.05704
321.95 K, 1449 kPa, Liquid	0.05672
321.97 K, 6367 kPa, Liquid	0.06142
322.01 K, 302 kPa, Gas	0.01579
322.01 K, 11135 kPa, Liquid	0.06547
322.03 K, 200 kPa, Gas	0.0156
322.04 K, 103 kPa, Gas	0.01545
322.04 K, 1115 kPa, Gas	0.01641
322.11 K, 1199 kPa, Gas	0.01674
322.14 K, 959 kPa, Gas	0.01623
322.15 K, 16399 kPa, Liquid	0.06904
322.18 K, 862 kPa, Gas	0.0161
322.22 K, 1450 kPa, Liquid	0.05677

Conditions	thermal conductivity [W/m/K]
313.15 K, Liquid	0.05899

From the NIST ThermoML archive (doi:10.1021/je200811n)
